Measured values published in patent publication US20040175762A1, “Screening system based on expression of abcg2 half transporter protein” (priority 2001, published 2004).
Like-named read-outs stand apart in the source and are kept apart here.

Assays:
ABCG2 [1] = target: T1, ABCG2 (Homo sapiens, UniProt Q9UNQ0, R482G); experiment: in vitro
T1 sequence (Q9UNQ0 1-655 R482G): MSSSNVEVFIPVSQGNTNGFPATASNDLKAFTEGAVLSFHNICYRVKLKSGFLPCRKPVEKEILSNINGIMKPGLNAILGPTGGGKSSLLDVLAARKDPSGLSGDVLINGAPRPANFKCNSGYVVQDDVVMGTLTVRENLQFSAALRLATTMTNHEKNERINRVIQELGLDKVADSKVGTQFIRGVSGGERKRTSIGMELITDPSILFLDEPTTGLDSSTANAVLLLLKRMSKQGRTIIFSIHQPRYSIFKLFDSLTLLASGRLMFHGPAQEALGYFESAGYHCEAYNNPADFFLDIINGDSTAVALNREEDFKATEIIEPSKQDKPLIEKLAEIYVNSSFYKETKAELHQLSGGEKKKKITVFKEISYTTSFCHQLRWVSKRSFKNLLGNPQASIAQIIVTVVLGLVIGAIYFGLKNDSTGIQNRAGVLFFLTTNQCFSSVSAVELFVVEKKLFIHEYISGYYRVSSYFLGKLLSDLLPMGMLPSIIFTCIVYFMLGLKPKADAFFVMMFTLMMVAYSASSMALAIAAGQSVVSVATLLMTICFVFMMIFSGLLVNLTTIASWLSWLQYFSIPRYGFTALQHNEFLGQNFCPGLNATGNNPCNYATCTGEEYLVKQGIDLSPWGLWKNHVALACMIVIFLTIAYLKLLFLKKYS
From the text: FIG. 2: Comparison of the effects of various compounds on the vanadate sensitive ATPase activity in isolated Sf9 membranes of ABCG2 (FIG. 2a) or MDR1 (FIG. 2b) expressing Sf9 cells. […] Data points indicate the mean±S.D. values of at least four measurements, performed in two or three different membrane preparations.
Individual clones expressing high levels of the human ABCG2 were obtained by end-point dilution and subsequent amplification. The clone producing the highest yield of the ABCG2 protein was selected by immunoblotting (see below).
The reaction mixture contained 40 mM MOPS-Tris (pH 7.0), 50 MM KCl, 2 mM dithiothreitol, 500 μM EGTA-Tris, 5 mM Na-azide, 1 mM oubain and 5-20 μg membrane protein. […] The vanadate sensitive faction was determined in the presence of 1 mM Na-orthovanadate.

ABCG2 [2] = target: T1, ABCG2
Experimental: FIG. 5. Mitoxantrone uptake in intact Sf9 cells expressing ABCG2 variants.
Flow-cytometry determination of MX fluorescence after 30 min incubation at 37° C.
Cells were washed once and suspended in HPMI. Aliquots of the suspension containing 3×10^5 cells were incubated with or without the addition of 5 μM MX, and also with 5 μM MX+10 μM FTC (a specific inhibitor of ABCG2). After an incubation for 30 minutes at 37° C. the cells were washed with ice-cold HPMI medium and than suspended in ice-cold HPMI containing 1.51 μl 10 mg/ml propidium-iodide and stored on ice until the flow cytometry measurements. […] Events were counted up to 15000 and dead cells were excluded based on propidium iodide staining.

human MDR1 protein = human MDR1 protein (Homo sapiens, UniProt P08183)
From the text: Data points indicate the mean±S.D. values of at least four measurements, performed in two or three different membrane preparations. Control values show the activity measured in the absence of added compounds.

ABCG2 [3] = target: T1, ABCG2; experiment: Hoechst dye uptake in intact Sf9 cells expressing ABCG2 (fluorescence spectrophotometry); format: cell-based; design: removing the full length human ABCG2 cDNA (G482 variant); expressed in transfected cells; host or cells: Sf9 insect cells infected with recombinant baculovirus
Experimental: FIG. 6. Hoechst dye uptake followed by fluorescence spectrophotometry in Sf9 cells expressing ABCG2482G (Panel A) or ABCG2 K86M mutant (Panel B). Abscissa: time in seconds. Ordinate: relative fluorescence in arbitrary units.
Hoechst33342 uptake—Hoechst dye uptake (5 μM) was measured in a fluorescence spectrophotometer at 350 nm (excitation)/460 nm (emission), by using 3×10^5 cells in a HPMI solution. This dye becomes fluorescent only in a complex with DNA (Haugland, MP catalogue). The initial increase of fluorescence is due to a rapid dye uptake and nuclear staining in dead cells, while further cellular dye uptake is reflected by an increase in fluorescence. At the end of each experiment, for standardization, a full cellular staining is obtained by the addition of 8 μM digitonin, disrupting the integrity of the cell membrane.

[4] = relative to the ATPase activity measured in the absence of compound

Chain of human MDR1 protein (P08183 whole entry): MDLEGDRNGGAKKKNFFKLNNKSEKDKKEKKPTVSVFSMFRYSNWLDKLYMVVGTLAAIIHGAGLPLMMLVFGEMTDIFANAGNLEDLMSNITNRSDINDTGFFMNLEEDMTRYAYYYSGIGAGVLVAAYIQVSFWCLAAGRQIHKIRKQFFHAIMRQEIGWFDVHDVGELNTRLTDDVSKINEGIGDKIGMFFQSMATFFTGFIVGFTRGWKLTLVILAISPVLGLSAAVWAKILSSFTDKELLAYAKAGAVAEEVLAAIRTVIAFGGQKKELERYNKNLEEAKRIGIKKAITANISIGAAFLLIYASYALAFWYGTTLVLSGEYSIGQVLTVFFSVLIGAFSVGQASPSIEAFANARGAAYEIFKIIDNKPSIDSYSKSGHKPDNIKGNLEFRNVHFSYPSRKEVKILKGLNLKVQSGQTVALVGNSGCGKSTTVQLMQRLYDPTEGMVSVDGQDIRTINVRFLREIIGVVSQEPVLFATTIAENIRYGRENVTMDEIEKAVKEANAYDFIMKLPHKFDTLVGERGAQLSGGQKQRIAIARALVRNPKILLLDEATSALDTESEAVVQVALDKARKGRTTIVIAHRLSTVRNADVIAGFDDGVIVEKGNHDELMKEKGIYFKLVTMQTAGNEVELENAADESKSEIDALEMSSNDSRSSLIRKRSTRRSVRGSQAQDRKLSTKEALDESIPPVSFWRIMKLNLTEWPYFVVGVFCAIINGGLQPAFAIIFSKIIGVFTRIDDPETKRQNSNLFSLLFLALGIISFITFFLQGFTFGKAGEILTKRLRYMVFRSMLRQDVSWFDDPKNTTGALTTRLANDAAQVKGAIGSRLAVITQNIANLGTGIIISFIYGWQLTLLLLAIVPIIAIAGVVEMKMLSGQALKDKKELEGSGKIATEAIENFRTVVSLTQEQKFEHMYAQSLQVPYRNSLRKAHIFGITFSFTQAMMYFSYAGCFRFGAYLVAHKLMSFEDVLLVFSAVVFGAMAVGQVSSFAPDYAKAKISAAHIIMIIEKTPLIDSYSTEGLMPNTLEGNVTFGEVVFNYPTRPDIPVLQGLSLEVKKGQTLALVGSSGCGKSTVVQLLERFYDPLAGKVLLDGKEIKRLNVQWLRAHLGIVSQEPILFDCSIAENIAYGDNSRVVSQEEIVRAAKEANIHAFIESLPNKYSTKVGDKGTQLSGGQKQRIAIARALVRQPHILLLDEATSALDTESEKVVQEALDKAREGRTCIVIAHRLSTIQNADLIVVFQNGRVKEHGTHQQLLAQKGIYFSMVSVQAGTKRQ

Compound: Nc1ncnc2c1ncn2[C@@H]1O[C@H](COP(=O)(O)OP(=O)([O-])OP(=O)([O-])O)[C@@H](O)[C@H]1O.[Mg+2] [MgATP]
- Km (ABCG2 [1]): ~300 µM
- MgATP concentration producing half-maximum membrane ATPase activity (ABCG2 [1]): 0.3 mM
- Km (ABCG2 [1]; read-out: KM ATP, without an added substrate): 600 µM

Compound: [Na+].[Na+].[Na+].[O]=[V]([O-])([O-])[O-] [Na-orthovanadate]
- Ki (ABCG2 [1]): ~20 µM

Compound: COc1cccc2c1C(=O)c1c(O)c3c(c(O)c1C2=O)C[C@@](O)(C(C)=O)C[C@@H]3O[C@H]1C[C@H](N)[C@H](O)[C@H](C)O1 [Daunorubicin]
- Emax (ABCG2 [1]; human, pH 7): 50%
- Kact (ABCG2 [1]; human, pH 7): 2,5 mM

Compound: COc1ccc2c3c([nH]c2c1)[C@H](C=C(C)C)N1C(=O)[C@@H]2CCCN2C(=O)[C@@H]1C3 [Fumitremorgin C]
- Effect on active extrusion of fluorescent compounds by ABCG2 482 variants (ABCG2 [2]; 482R, 482G, 482T variants, intact Sf9 cells): inhibited
- Ki (ABCG2 [1]): 1.3 µM
- Maximum inhibition (%) (ABCG2 [1]; [4]): 74%
- Effect on ABCG2-ATPase activity (ABCG2 [1]; result in words): strongly inhibited
- Effect on verapamil stimulated MDR1-ATPase activity (human MDR1 protein; 33 μM verapamil): no significant effect
- Effect on MDR1-ATPase activity (human MDR1 protein; basal, result in words): no significant effect

Compound: CCOc1ccc(-c2nc3ccc(-c4nc5ccc(N6CCN(C)CC6)cc5[nH]4)cc3[nH]2)cc1 [Hoechst dye, Hoechst33342]
- Hoechst dye extrusion by ABCG2-expressing Sf9 cells (ABCG2 [3]): actively extrude

Compound: Rhodamine 123
- Kact (ABCG2 [1]): 4,5 mM
- Maximum stimulation (%) (ABCG2 [1]; [4]): 20%

Compound: CC(=O)OCOC(=O)CN(CC(=O)OCOC(C)=O)Cc1cc2c(cc1OC(C)=O)Oc1cc(OC(C)=O)c(CN(CC(=O)OCOC(C)=O)CC(=O)OCOC(C)=O)cc1C21OC(=O)c2ccccc21 [Calcein-AM, calcein acetoxy-methylesther]
- Effect on ABCG2-ATPase activity (ABCG2 [1]; result in words): no effect
- Kact, MDR1-ATPase (human MDR1 protein): about 1 μM
- Stimulation of MDR1-ATPase (human MDR1 protein): 4.5 fold

Compound: O=C1c2c(O)ccc(O)c2C(=O)c2c(NCCNCCO)ccc(NCCNCCO)c21 [Mitoxantrone]
- Mitoxantrone extrusion by ABCG2-expressing Sf9 cells (ABCG2 [2]; intact cells, flow cytometry): actively extrude
- Effect on ABCG2-ATPase activity (ABCG2 [1]; human, pH 7): stimulated the ABCG2-ATPase activity in a concentration dependent manner
- Emax (ABCG2 [1]; human, pH 7): 40%
- Kact (ABCG2 [1]; human, pH 7): 7 mM
- Effect on MDR1-ATPase activity (human MDR1 protein): no significant effect

Compound: CCN1C(=O)C=CC1=O [NEM, N-ethylmaleimide]
- Ki (ABCG2 [1]): 10 µM

Compound: COc1cccc2c1C(=O)c1c(O)c3c(c(O)c1C2=O)C[C@@](O)(C(=O)CO)C[C@@H]3O[C@H]1C[C@H](N)[C@H](O)[C@H](C)O1 [Doxorubicin]
- Emax (ABCG2 [1]; human, pH 7): 30%
- Kact (ABCG2 [1]; human, pH 7): 5 mM
